pIC50: −log10 of the molar value.
Experiments:
[1] = molecular target: CDK2/cyclinE1 complex (Homo sapiens, UniProt P24941); experiment: In-vitro enzymatic inhibitory activity testing, CDK2 inhibition assay (Caliper EZ Reader II); type: biochemical; details: CDK2/cyclinE1 0.5 nM, 180 min at 27° C.
In short: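 CDK2/cyclinE1 (0.5 nM) phosphorylated 5-FAM-CDK7tide (2 μM) in MES buffer pH 6.5 with MgCl2, Tween 20 and BSA. Substrate and product were separated electrophoretically on a Caliper EZ Reader II. IC50 values came from nonlinear dose-response fits.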

[2] = tested on: human breast cancer cells HCC70; experiment: Cell biological activity detection (CyQuant, 72 hours), HCC70; type: cell-based; details: incubation for 72 hours
In short: (§1)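 A2780 and HCC70 cells seeded at 2000/well in RPMI 1640 + 10% FBS, treated next day with 9-point compound dilutions (top 10 μM, 1:4; 0.2% DMSO) for 72 h at 37 °C. Cell number read by CyQuant Direct nucleic acid stain (ex 488 nm); IC50 from dose–response fit.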

[3] = molecular target: CDK7/cyclinH/MAT1 complex (Homo sapiens, UniProt P50613); experiment: In-vitro enzymatic inhibitory activity testing, CDK7 inhibition assay (Caliper EZ Reader II); type: biochemical; details: CDK7/cyclinH/MAT1 6 nM, 180 min at 27° C.
CDK7/cyclinH/MAT1 complex, sequence (P50613 whole entry, species assumed): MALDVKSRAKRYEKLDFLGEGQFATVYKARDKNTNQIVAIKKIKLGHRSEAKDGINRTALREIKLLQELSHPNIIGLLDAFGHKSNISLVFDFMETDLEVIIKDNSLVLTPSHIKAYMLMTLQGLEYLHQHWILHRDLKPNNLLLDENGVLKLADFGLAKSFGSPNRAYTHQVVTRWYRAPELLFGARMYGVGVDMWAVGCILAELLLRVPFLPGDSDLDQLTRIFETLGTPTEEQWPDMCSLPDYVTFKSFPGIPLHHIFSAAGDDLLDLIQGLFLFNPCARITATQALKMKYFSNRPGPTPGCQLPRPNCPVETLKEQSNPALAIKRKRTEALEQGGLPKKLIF
CDK7/cyclinH/MAT1 complex, sequence (P51946 whole entry partner, species assumed): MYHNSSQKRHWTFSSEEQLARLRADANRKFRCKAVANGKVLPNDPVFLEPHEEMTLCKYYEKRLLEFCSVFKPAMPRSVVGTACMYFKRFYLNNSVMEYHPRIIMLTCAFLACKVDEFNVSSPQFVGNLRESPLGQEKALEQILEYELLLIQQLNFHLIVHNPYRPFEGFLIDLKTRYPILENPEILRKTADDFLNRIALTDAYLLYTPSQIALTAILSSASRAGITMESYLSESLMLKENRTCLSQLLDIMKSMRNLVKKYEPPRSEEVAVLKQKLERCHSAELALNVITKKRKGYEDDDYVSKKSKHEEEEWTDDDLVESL
CDK7/cyclinH/MAT1 complex, sequence (P51948 whole entry partner, species assumed): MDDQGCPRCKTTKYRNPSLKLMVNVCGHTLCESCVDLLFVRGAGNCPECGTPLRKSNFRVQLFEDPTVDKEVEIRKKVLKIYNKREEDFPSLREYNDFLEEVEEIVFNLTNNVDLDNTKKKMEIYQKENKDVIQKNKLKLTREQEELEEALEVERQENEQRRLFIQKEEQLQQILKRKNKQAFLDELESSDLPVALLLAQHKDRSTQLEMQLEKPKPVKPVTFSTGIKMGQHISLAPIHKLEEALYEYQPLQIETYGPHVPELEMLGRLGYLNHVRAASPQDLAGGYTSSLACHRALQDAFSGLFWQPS
In short: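 Enzyme preincubated 10 min with compound, then peptide substrate plus ATP added in 80 mM MES pH 6.5, 10 mM MgCl2 buffer; 180 min at 27 °C, stopped with EDTA.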

[4] = Caco-2 membrane permeability and efflux rate; type: in vitro ADME; details: human, Caco-2, Caco-2, 5 μM; for Papp B→A at 2 h, 5 μM: basal end to top end; for efflux ratio at 2 h, 5 μM: read-out: ER (efflux rate); for Papp A→B at 2 h, 5 μM: top end to basal end
Method: The recovered Caco-2 cell suspension was seeded into a […] plate and cultured for 14-18 days. After being cultured for 14 days, the cells were fused and differentiated to be ready for a transport experiment. The Caco-2 cell plate was taken out from the incubator. Stock solutions of a to-be-tested compound and a control compound were formulated with DMSO and diluted with an HBSS (10 mM HEPES, pH 7.4) buffer to a final concentration of 5 μM. A test compound solution and a control drug solution were added to each well (top end) of an insert culture plate, and the HBSS (10 mM HEPES, pH 7.4) buffer was added to each well of a test compound receiving plate (basal end). When measuring the transport rate of the compound from the basal end to the top end, the test compound solution and the control drug solution were added to each well of the receiving plate (basal end), the HBSS (10 mM HEPES, pH 7.4) buffer solution was added to each well (top end) of the insert culture plate for the test compound solution, and incubation was carried out for 2 hours in a CO2 incubator at 37° C. After the transport experiment was completed, vortexing was carried out for 10 minutes at 1000 rpm. After sample quenching at each time point, LC/MS/MS analysis was carried out. A fluorescence value was measured after a two-hour transport experiment, a lucifer yellow solution was added in a transwell chamber (top end), a transport buffer solution was added in the basal end, and incubation was carried out for 30 minutes in the CO2 incubator at 37° C. The solution was taken out directly from the top end and the basal end (using basolateral wells) and transferred to a new 96-well plate. A cell fluorescence value was measured by a microplate reader (to detect membrane integrity), an excitation wavelength was […], and an emission wavelength was […]. All data were calculated by using Microsoft Excel, and a peak area was calculated according to chromatograms. An apparent permeability coefficient (Papp, unit: 10-6, cm/s) and an efflux rate (ER) of the compounds in Caco-2 cells were calculated by the specific concentrations of a receiving end and an administering end.

[5] = tested on: ovarian cancer A2780; experiment: Cell biological activity detection (CyQuant, 72 hours), A2780; type: cell-based, human; details: A2780 cells, incubation for 72 hours
In short: as §1

| Compound | pIC50 [1] | pIC50 ([2]; Homo sapiens, HCC70, 72 h) | pIC50 [3] | Papp B→A at 2 h, 5 μM [4] [×10⁻⁶ cm/s] | efflux ratio at 2 h, 5 μM [4] | Papp A→B at 2 h, 5 μM [4] [×10⁻⁶ cm/s] | pIC50 ([5]; Homo sapiens, A2780, 72 h) | pIC50 [2] | pIC50 [5] |
| --- | --- | --- | --- | --- | --- | --- | --- | --- | --- |
| CP(C)(=O)c1cccc2c(-c3nc(NC4(CO)CCOC4)ncc3C(F)(F)F)c[nH]c12 (single isomer, unassigned) [Compound 118] | 4.30 to 5.30 | > 7.70 | > 7.70 | 33.8 | 16 | 2.11 | > 7.70 | – | – |
| CP(C)(=O)c1cccc2c(-c3nc(NCC4CC4CO)ncc3C(F)(F)F)c[nH]c12 (single isomer, unassigned) [Compound 143] | 4.30 to 5.30 | 6.70 to 7.70 | > 7.70 | 32.5 | 13.3 | 2.44 | 6.70 to 7.70 | – | – |
| CP(C)(=O)c1cccc2c(-c3nc(N[C@H]4CC[C@@H]4O)ncc3C(F)(F)F)c[nH]c12 [Compound 154, (3-(2-(((1S,2S)-2-hydroxycyclobutyl)amino)-5-(trifluoromethyl)pyrimidin-4-yl)-1hydro-indole-7-yl)dimethylphosphine oxide] | 5.30 to 6.70 | > 7.70 | > 7.70 | 26.4 | 5.97 | 4.42 | > 7.70 | – | – |
| CP(C)(=O)c1cccc2c(-c3nc(N[C@H]4CC[C@H](O)C4)ncc3C(F)(F)F)c[nH]c12 [Compound 83] | 5.30 to 6.70 | > 7.70 | > 7.70 | 32.4 | 16.3 | 1.99 | > 7.70 | – | – |
| CP(C)(=O)c1cccc2c(-c3nc(NCCCO)ncc3C(F)(F)F)c[nH]c12 [Compound 89, (3-(2-((3-hydroxypropyl)amino)-5-(trifluoromethyl)pyrimidin-4-yl)-1H-indole-7-yl)dimethylphosphine oxide] | 5.30 to 6.70 | > 7.70 | > 7.70 | 30.6 | 14.3 | 2.13 | > 7.70 | – | – |
| CP(C)(=O)c1cccc2c(-c3nc(N[C@H]4CCC[C@@H]4O)ncc3C(F)(F)F)c[nH]c12 [Compound 155, (3-(2-(((1S,2S)-2-hydroxycyclopentyl)amino)-5-(trifluoromethyl)pyrimidin-4-yl)-1hydro-indole-7-yl)dimethylphosphine oxide] | 5.30 to 6.70 | > 7.70 | > 7.70 | 24 | 4.31 | 5.57 | > 7.70 | – | – |
| CP(C)(=O)c1cccc2c(-c3nc(NC4(CO)COC4)ncc3C(F)(F)F)c[nH]c12 [Compound 114, (3-(2-((3-(hydroxymethyl)oxetan-3-yl)amino)-5-(trifluoromethyl)pyrimidin-4-yl)-1H-indole-7-yl)dimethylphosphine oxide] | 5.30 to 6.70 | > 7.70 | > 7.70 | 25.4 | 31.9 | 0.8 | > 7.70 | – | – |
| CP(C)(=O)c1cccc2c(-c3nc(NC4(CO)CCOC4)ncc3C(F)(F)F)c[nH]c12 (single isomer, unassigned) [Compound 119] | 4.30 to 5.30 | – | 6.70 to 7.70 | – | – | – | – | 6.70 to 7.70 | 6.70 to 7.70 |
| CP(C)(=O)c1cccc2c(-c3nc(NC4(CO)CCC4)ncc3C(F)(F)F)c[nH]c12 [Compound 168, (3-(2-((1-(hydroxymethyl)cyclobutyl)amino)-5-(trifluoromethyl)pyrimidin-4-yl)-1H-indole-7-yl)dimethylphosphine oxide] | 4.30 to 5.30 | 6.70 to 7.70 | > 7.70 | 17.1 | 2.14 | 7.99 | 6.70 to 7.70 | – | – |
| C[C@H](CO)Nc1ncc(C(F)(F)F)c(-c2c[nH]c3c(P(C)(C)=O)cccc23)n1 [Compound 93, (R)-(3-(2-((1-hydroxypropyl-2-yl)amino)-5-(trifluoromethyl)pyrimidin-4-yl)-1H-indole-7-yl)dimethylphosphine oxide] | 5.30 to 6.70 | > 7.70 | > 7.70 | 27 | 7.64 | 3.53 | > 7.70 | – | – |
| CP(C)(=O)c1cccc2c(-c3nc(NC45CC(O)(C4)C5)ncc3C(F)(F)F)c[nH]c12 [Compound 174, (3-(2-((3-hydroxybicyclo[1.1.1]pentan-1-yl)amino)-5-(trifluoromethyl)pyrimidin-4-yl)-1H-indole-7-yl)dimethylphosphine oxide] | 5.30 to 6.70 | > 7.70 | > 7.70 | 34.8 | 17.1 | 2.03 | > 7.70 | – | – |
| CP(C)(=O)c1cccc2c(-c3nc(NC[C@H]4C[C@](C)(O)C4)ncc3C(F)(F)F)c[nH]c12 [Compound 127, (3-(2-(((trans-3-hydroxy-3-methylcyclobutyl)methyl)amino)-5-(trifluoromethyl)pyrimidin-4-yl)-1H-indole-7-yl)dimethylphosphine oxide] | 5.30 to 6.70 | > 7.70 | > 7.70 | 22.4 | 5.86 | 3.82 | > 7.70 | – | – |
| CP(C)(=O)c1cccc2c(-c3nc(NCCO)ncc3C(F)(F)F)c[nH]c12 [Compound 97, (3-(2-((2-hydroxyethyl)amino)-5-(trifluoromethyl)pyrimidin-4-yl)-1H-indole-7-yl)dimethylphosphine oxide] | 5.30 to 6.70 | 6.70 to 7.70 | > 7.70 | 32.3 | 20.8 | 1.55 | > 7.70 | – | – |
| CC(CO)CNc1ncc(C(F)(F)F)c(-c2c[nH]c3c(P(C)(C)=O)cccc23)n1 (single isomer, unassigned) [Compound 150] | 5.30 to 6.70 | – | > 7.70 | – | – | – | – | > 7.70 | 6.70 to 7.70 |
| CP(C)(=O)c1cccc2c(-c3nc(NCC4CC4CO)ncc3C(F)(F)F)c[nH]c12 (single isomer, unassigned) [Compound 144] | 4.30 to 5.30 | – | 6.70 to 7.70 | – | – | – | – | 6.70 to 7.70 | 6.70 to 7.70 |
| CC(O)[C@H](C)Nc1ncc(C(F)(F)F)c(-c2c[nH]c3c(P(C)(C)=O)cccc23)n1 (single isomer, unassigned) [Compound 130] | 4.30 to 5.30 | – | > 7.70 | – | – | – | – | 6.70 to 7.70 | 6.70 to 7.70 |

From patent US20240124504A1, “AROMATIC HETEROCYCLIC COMPOUND, AND PHARMACEUTICAL COMPOSITION AND APPLICATION THEREOF” (GT APEIRON THERAPEUTICS LIMITED, priority 2020, published 2024)
